Where a SMILES comes first, the peptide text is derived from it. The star is where a group is joined. FITC = O=C1OC2(c3ccc(O)cc3Oc3cc(O)ccc32)c2ccc(NC(=S)*)cc21
What was measured:
ABL1 SH3 = ABL1 SH3 (Homo sapiens, UniProt P00519); experiment: FP saturation binding, ABL1 SH3; conditions: domain titrated to 10 nM FITC-peptide, 50 mM sodium phosphate pH 7.4, 0.05% Tween, quadratic fit, technical triplets, read-out: KD [µM] + SE
USP7 MATH/TRAF [1] = molecular target: T1, USP7 MATH/TRAF (Homo sapiens, UniProt Q93009); experiment: FP saturation binding, USP7 MATH/TRAF; conditions: domain titrated to 10 nM FITC-peptide, 50 mM sodium phosphate pH 7.4, 0.05% Tween, quadratic fit, technical triplets, read-out: KD [µM] + SE
KPNA7 ARM (minor) = KPNA7 ARM (minor) (Homo sapiens, UniProt A9QM74); experiment: FP saturation binding, KPNA7 ARM (minor); conditions: domain titrated to 10 nM FITC-peptide, 50 mM sodium phosphate pH 7.4, 0.05% Tween, quadratic fit, technical triplets, read-out: KD [µM] + SE
KPNA4 ARM minor = KPNA4 ARM minor (Homo sapiens, UniProt O00629); experiment: FP saturation binding, KPNA4 ARM (minor); conditions: domain titrated to 10 nM FITC-peptide, 50 mM sodium phosphate pH 7.4, 0.05% Tween, quadratic fit, technical triplets, read-out: KD [µM] + SE
Clathrin NTD = molecular target: T2, Clathrin NTD (Homo sapiens, UniProt Q00610); experiment: FP saturation binding, Clathrin NTD; conditions: domain titrated to 10 nM FITC-peptide, 50 mM sodium phosphate pH 7.4, 0.05% Tween, quadratic fit, technical triplets, read-out: KD [µM] + SE
T2 sequence (Q00610 1-364): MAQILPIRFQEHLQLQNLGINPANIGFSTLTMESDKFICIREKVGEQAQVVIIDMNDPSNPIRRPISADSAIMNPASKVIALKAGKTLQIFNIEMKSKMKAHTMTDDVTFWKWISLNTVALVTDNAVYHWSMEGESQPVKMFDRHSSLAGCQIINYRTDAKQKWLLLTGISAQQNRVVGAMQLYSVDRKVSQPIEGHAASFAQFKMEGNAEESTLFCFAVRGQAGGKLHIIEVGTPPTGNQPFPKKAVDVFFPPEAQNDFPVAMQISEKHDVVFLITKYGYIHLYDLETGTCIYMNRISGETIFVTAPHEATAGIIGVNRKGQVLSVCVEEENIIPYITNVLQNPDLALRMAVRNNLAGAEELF
Method: (§4) In order to calculate the FP signal in millipolarisation (mP), the FITC-labelled peptides were excited at 485 nm and the emitted light was measured at 535 nm in two different angles. For saturation experiments, a dilution series of the respective protein domains was generated (25 µL) and 10 nM fluorescein isothiocyanate (FITC)-labelled peptide (diluted in 50 mM sodium phosphate buffer pH 7.4, 0.05% Tween) were added in an end volume of 50 µL. A control experiment titrating GST was performed for the binding of the NEDD4 WW2 domain, since the GST-tagged construct was used for affinity measurements. For fitting the data, the buffer-corrected reduced values were plotted in GraphPad PRISM against the respective protein concentration and the KD-values were obtained by fitting against the quadratic equation (Gianni et al, [2005]).

GABARAPL1 ATG8 = GABARAPL1 ATG8 (Homo sapiens, UniProt Q9H0R8); experiment: FP saturation binding, GABARAPL1 ATG8; conditions: domain titrated to 10 nM FITC-peptide, 50 mM sodium phosphate pH 7.4, 0.05% Tween, quadratic fit, technical triplets, read-out: KD [µM] + SE
GGA1 VHS [2] = molecular target: T3, GGA1 VHS (Homo sapiens, UniProt Q9UJY5); experiment: FP saturation binding, GGA1 VHS; conditions: domain titrated to 10 nM FITC-peptide, 50 mM sodium phosphate pH 7.4, 0.05% Tween, quadratic fit, technical triplets, read-out: KD [µM] + SE
T3 sequence (Q9UJY5 1-157): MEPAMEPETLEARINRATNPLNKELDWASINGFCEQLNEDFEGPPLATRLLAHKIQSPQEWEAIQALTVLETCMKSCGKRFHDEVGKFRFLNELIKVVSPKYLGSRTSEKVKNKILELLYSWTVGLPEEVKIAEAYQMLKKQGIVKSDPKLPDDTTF

CREBBP KIX = CREBBP KIX (Homo sapiens, UniProt Q92793); experiment: FP saturation binding, CREBBP KIX; conditions: domain titrated to 10 nM FITC-peptide, 50 mM sodium phosphate pH 7.4, 0.05% Tween, quadratic fit, technical triplets, read-out: KD [µM] + SE
NEDD4 WW2 = NEDD4 WW2 (Homo sapiens, UniProt P46934); experiment: FP saturation binding, NEDD4 WW2; conditions: GST-tagged construct, domain titrated to 10 nM FITC-peptide, 50 mM sodium phosphate pH 7.4, 0.05% Tween, quadratic fit, technical triplets, read-out: KD [µM] + SE
Method: as §4

MAP1LC3A ATG8 [3] = molecular target: T4, MAP1LC3A ATG8 (Homo sapiens, UniProt Q9H492); experiment: FP displacement assay, MAP1LC3A ATG8; type: binding; conditions: read-out: KD-values [µM] + SEM
Method: (§5) FP experiments were performed, as previously described (Kliche et al, [2021], [2023]), on an iD5 plate reader (Molecular devices) using black half-area non-binding 96-well plates (Corning). In order to calculate the FP signal in millipolarisation (mP), the FITC-labelled peptides were excited at 485 nm and the emitted light was measured at 535 nm in two different angles. For saturation experiments, a dilution series of the respective protein domains was generated (25 µL) and 10 nM fluorescein isothiocyanate (FITC)-labelled peptide (diluted in 50 mM sodium phosphate buffer pH 7.4, 0.05% Tween) were added in an end volume of 50 µL. […] For fitting the data, the buffer-corrected reduced values were plotted in GraphPad PRISM against the respective protein concentration and the KD-values were obtained by fitting against the quadratic equation (Gianni et al, [2005]).
(§6) The buffer-corrected reduced values were subsequently plotted against the logarithmic unlabelled peptide concentration to derive the IC50 values by using the sigmoidal dose-response (x is logarithmic) fit in GraphPad PRISM and calculate the KD values as described previously (Nikolovska-Coleska et al, [2004]).

MAP1LC3A ATG8 [4] = molecular target: T4, MAP1LC3A ATG8; experiment: GenVar_HD2 ProP-PD phage selection, MAP1LC3A ATG8; conditions: bait MAP1LC3A ATG8; from NGS counts of overlapping wild-type/mutant library peptide pairs; positive = mutation enhances, negative = disrupts binding
Method: (§1) Phage display screens were performed according to previous reports (Benz et al, [2022]; Ali et al, [2020]) and for four consecutive selection rounds with five to six replicates per bait protein domain against the […] library.
(§2) On the first day, both bait (15 µg in 100 µL PBS) and control protein domains (GST and MBP; 10 µg in 100 µL PBS) were immobilised on a 96-well MaxiSorb plate (Nunc) overnight in the cold room while shaking. Additionally, a 10 mL culture of Omnimax E. coli bacteria supplemented with 10 µg/mL tetracycline was incubated overnight at 37 °C at 200 rpm.
(§3) First, protein solutions were removed from both control and bait protein domain plates and the wells were blocked with 0.5% BSA in PBS (200 µL/well) for 1 h in the cold room while shaking. After that, three Omnimax E. coli cultures were started supplemented with either 30 µg/mL kanamycin, 100 µg/mL carbenicillin and 10 µg/mL tetracycline and incubated at 37 °C and 200 rpm. The two first cultures served as a means to check for helper phage contamination (kanamycin) and phages with library phagemid contamination (carbenicillin) of the culture used for elution of the phages during selections. The tetracycline Omnimax E. coli culture was grown until OD at 600 nm reached 0.6–0.8. […]

USP7 MATH/TRAF [5] = molecular target: T1, USP7 MATH/TRAF; experiment: FP displacement assay, USP7 MATH/TRAF; type: binding; conditions: read-out: KD-values [µM] + SEM
Method: as §5, §6

USP7 MATH/TRAF [6] = molecular target: T1, USP7 MATH/TRAF; experiment: GenVar_HD2 ProP-PD phage selection, USP7 MATH/TRAF; conditions: bait USP7 MATH/TRAF; from NGS counts of overlapping wild-type/mutant library peptide pairs; positive = mutation enhances, negative = disrupts binding
Method: as §1, §2, §3

GGA1 VHS [7] = molecular target: T3, GGA1 VHS; experiment: GenVar_HD2 ProP-PD phage selection, GGA1 VHS; conditions: bait GGA1 VHS; from NGS counts of overlapping wild-type/mutant library peptide pairs; positive = mutation enhances, negative = disrupts binding
Method: as §1, §2, §3

T1 sequence (Q93009 53-206): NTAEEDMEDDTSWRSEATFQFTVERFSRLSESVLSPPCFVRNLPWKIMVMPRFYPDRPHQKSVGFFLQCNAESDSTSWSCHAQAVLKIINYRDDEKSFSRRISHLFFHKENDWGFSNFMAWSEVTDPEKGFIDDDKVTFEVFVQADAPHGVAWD
KPNA7 ARM (minor), sequence (A9QM74 58-488 limits assumed): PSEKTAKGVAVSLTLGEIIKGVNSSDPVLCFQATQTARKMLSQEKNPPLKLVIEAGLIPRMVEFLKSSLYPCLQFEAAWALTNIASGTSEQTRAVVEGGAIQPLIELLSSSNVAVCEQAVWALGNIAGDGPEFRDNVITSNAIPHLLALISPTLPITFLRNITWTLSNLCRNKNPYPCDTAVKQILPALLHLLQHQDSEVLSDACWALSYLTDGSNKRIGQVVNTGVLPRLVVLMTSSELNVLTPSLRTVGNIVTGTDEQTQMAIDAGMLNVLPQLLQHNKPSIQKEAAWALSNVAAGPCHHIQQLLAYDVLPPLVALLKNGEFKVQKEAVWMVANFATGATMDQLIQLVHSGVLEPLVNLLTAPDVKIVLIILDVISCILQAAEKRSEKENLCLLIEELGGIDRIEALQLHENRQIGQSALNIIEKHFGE
ABL1 SH3, sequence (P00519 60-121): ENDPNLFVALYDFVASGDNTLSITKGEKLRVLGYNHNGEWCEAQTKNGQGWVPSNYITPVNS
NEDD4 WW2, sequence (P46934 765-803 limits assumed): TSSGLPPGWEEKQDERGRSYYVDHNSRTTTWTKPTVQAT
CREBBP KIX, sequence (Q92793 587-673): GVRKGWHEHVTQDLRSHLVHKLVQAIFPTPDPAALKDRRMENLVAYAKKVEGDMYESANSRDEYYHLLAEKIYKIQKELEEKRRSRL
KPNA4 ARM minor, sequence (O00629 68-487): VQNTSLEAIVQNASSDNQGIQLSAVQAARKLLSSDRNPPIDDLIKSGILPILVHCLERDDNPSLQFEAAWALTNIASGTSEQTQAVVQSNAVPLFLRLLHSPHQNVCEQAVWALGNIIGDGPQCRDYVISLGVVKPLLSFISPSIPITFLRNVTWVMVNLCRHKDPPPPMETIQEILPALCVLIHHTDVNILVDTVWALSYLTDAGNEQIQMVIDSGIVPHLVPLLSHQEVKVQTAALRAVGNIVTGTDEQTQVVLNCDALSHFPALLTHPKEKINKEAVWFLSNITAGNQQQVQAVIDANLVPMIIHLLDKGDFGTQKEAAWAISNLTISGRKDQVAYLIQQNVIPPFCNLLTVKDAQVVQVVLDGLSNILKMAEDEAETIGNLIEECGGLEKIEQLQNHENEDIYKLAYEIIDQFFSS
GABARAPL1 ATG8, sequence (Q9H0R8 2-115): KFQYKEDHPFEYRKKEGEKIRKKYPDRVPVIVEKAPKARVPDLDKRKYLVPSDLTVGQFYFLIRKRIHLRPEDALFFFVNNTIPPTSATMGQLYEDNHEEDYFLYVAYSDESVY

`CC(C)[C@H](NC(=O)[C@@H]1CCCN1C(=O)[C@@H]1CCCN1C(=O)[C@@H]1CCCN1C(=O)[C@@H]1CCCN1C(=O)[C@H](Cc1ccc(O)cc1)NC(=O)[C@H](C)NC(=O)[C@@H]1CCCN1C(=O)[C@@H]1CCCN1C(=O)[C@H](Cc1c[nH]cn1)NC(=S)Nc1ccc2c(c1)C(=O)OC21c2ccc(O)cc2Oc2cc(O)ccc21)C(=O)N1CCC[C@H]1C(=O)N[C@H](C(N)=O)[C@@H](C)O` [FITC-3BP2] ({FITC}-HPPAYPPPPVPT-NH2) gave a Kd (ABL1 SH3) of 3.7 ± 0.4 µM.
In the case of `CC[C@H](C)[C@H](NC(=O)[C@H](CO)NC(=O)[C@H](CO)NC(=O)[C@H](CO)NC(=O)[C@@H](NC(=O)[C@H](CO)NC(=O)[C@@H]1CCCN1C(=O)[C@H](CCC(N)=O)NC(=O)[C@H](CO)NC(=O)[C@H](Cc1ccc(O)cc1)NC(=O)[C@H](CC(=O)O)NC(=S)Nc1ccc2c(c1)C(=O)OC21c2ccc(O)cc2Oc2cc(O)ccc21)[C@@H](C)O)C(=O)N[C@H](C(=O)N[C@@H](Cc1ccc(O)cc1)C(=O)O)[C@@H](C)CC` [FITC-MDM2] ({FITC}-DYSQPSTSSSIIY-OH), the Kd (USP7 MATH/TRAF [1]) is reported as 0.5 ± 0.03 µM.
`CC[C@H](C)[C@H](NC(=O)[C@H](C)NC(=O)[C@H](CCCNC(=N)N)NC(=O)CNC(=O)[C@@H](NC(=O)[C@H](CCCNC(=N)N)NC(=O)CNC(=O)[C@H](CCC(=O)O)NC(=O)[C@H](CCSC)NC(=O)[C@H](CCSC)NC(=O)[C@H](CC(=O)O)NC(=O)[C@H](Cc1ccc(O)cc1)NC(=O)[C@@H](NC(=O)[C@H](CCCNC(=N)N)NC(=O)[C@H](CCCCN)NC(=O)[C@@H]1CCCN1C(=S)Nc1ccc2c(c1)C(=O)OC21c2ccc(O)cc2Oc2cc(O)ccc21)[C@@H](C)O)C(C)C)C(N)=O` [FITC-NCOR2] ({FITC}-PKRTYDMMEGRVGRAI-NH2) was tested, and the Kd (KPNA7 ARM (minor)) was 57 ± 9 µM and the Kd (KPNA4 ARM minor) was 0.03 ± 0.002 µM.
`CC[C@H](C)[C@H](NC(=O)[C@H](CC(C)C)NC(=O)[C@H](CC(=O)O)NC(=O)[C@@H](NC(=O)[C@H](CO)NC(=S)Nc1ccc2c(c1)C(=O)OC21c2ccc(O)cc2Oc2cc(O)ccc21)C(C)C)C(=O)N[C@H](C(=O)N[C@@H](Cc1ccccc1)C(=O)N[C@@H](CC(=O)O)C(=O)N[C@@H](CO)C(=O)N[C@H](C(N)=O)C(C)C)[C@@H](C)O` [FITC-NSP3] ({FITC}-SVDLITFDSV-NH2) showed a Kd (Clathrin NTD) of 21 ± 3 µM.
With `CC(C)C[C@H](NC(=O)[C@H](Cc1c[nH]cn1)NC(=O)[C@@H](NC(=O)[C@H](Cc1c[nH]c2ccccc12)NC(=O)[C@H](CC(=O)O)NC(=O)[C@H](CC(=O)O)NC(=O)[C@H](CC(=O)O)NC(=S)Nc1ccc2c(c1)C(=O)OC21c2ccc(O)cc2Oc2cc(O)ccc21)[C@@H](C)O)C(=O)N[C@@H](CO)C(=O)N[C@@H](CO)C(=O)N[C@@H](CCCCN)C(N)=O` [FITC-SQSTM1] the Kd (GABARAPL1 ATG8) was 3.7 ± 0.4 µM.
For `CC[C@H](C)[C@H](NC(=O)[C@H](CC(=O)O)NC(=O)[C@H](CC(C)C)NC(=O)[C@H](CC(C)C)NC(=O)[C@H](CC(=O)O)NC(=O)[C@H](CCC(=O)O)NC(=O)[C@H](CC(=O)O)NC(=O)[C@H](CCC(=O)O)NC(=O)[C@H](CC(=O)O)NC(=S)Nc1ccc2c(c1)C(=O)OC21c2ccc(O)cc2Oc2cc(O)ccc21)C(=O)N[C@@H](CCC(=O)O)C(=O)N[C@@H](CC(=O)O)C(N)=O` [FITC-STK11_mut] ({FITC}-DEDEDLLDIED-NH2), the Kd (GGA1 VHS [2]) was 14.1 ± 0.7 µM.
`CC(C)C[C@H](NC(=O)[C@H](CC(C)C)NC(=O)[C@H](CC(=O)O)NC(=O)[C@H](CO)NC(=O)[C@H](CC(C)C)NC(=O)[C@H](CCC(=O)O)NC(=O)[C@H](CCCCN)NC(=O)[C@H](CC(=O)O)NC(=S)Nc1ccc2c(c1)C(=O)OC21c2ccc(O)cc2Oc2cc(O)ccc21)C(=O)N[C@@H](CC(=O)O)C(=O)N[C@@H](Cc1ccccc1)C(=O)N[C@@H](CO)C(N)=O` [FITC-TCF3] ({FITC}-DKELSDLLDFS-NH2) showed a Kd (CREBBP KIX) of 35 ± 4 µM.
With `C[C@H](NC(=O)[C@H](CO)NC(=O)[C@H](Cc1ccc(O)cc1)NC(=O)[C@@H]1CCCN1C(=O)[C@@H]1CCCN1C(=O)[C@@H]1CCCN1C(=O)[C@H](CO)NC(=O)[C@H](CC(=O)O)NC(=O)[C@@H](NC(=S)Nc1ccc2c(c1)C(=O)OC21c2ccc(O)cc2Oc2cc(O)ccc21)[C@@H](C)O)C(=O)NCC(=O)O` [FITC-UL56(HHV-2)] ({FITC}-TDSPPPYSAG-OH) the Kd (NEDD4 WW2) was 4.1 ± 0.3 µM.
Molecule “Ac-QTKWELLQQVDTSTRT-NH2 [KRT1_209-224 wild-type]” has a Kd (MAP1LC3A ATG8 [3]) of 55 ± 5 µM.
In the case of “Ac-QTKWEPLQQVDTSTRT-NH2 [KRT1_209-224 L214P]”, the Mutation enrichment score (MAP1LC3A ATG8 [4]) is reported as −6.
Molecule “Ac-YISSSSTSTMPNSSKSS-NH2 [CHK2_38-53 Q51K]” has a Kd (USP7 MATH/TRAF [5]) of 4.7 ± 0.3 µM and a Mutation enrichment score (USP7 MATH/TRAF [6]) of −6.
“Ac-YQQELDHLLVDLDHQR-NH2 [MYH9_1419-1433 D1424H]” was tested, and the Mutation enrichment score (GGA1 VHS [7]) was −10.

Source: article PMC11369174, “Proteome-scale characterisation of motif-based interactome rewiring by disease mutations” (Molecular Systems Biology, 2024)
